Reference: patent US10154957B2, “Microneedle device having a peptide therapeutic agent and an amino acid and methods of making and using the same” (3M INNOVATIVE PROPERTIES COMPANY, priority 2011, dated 2018)

Test: Percent purity of PTHrP analogue (10 mg/mL formulations) in coating on arrays stored at 25° C./60% RH or 5° C./ambient RH (HPLC)
Assay type: physicochemical
Procedure: The protein or polypeptide content in the formulation coated on the microneedle arrays was determined using an Agilent 1100 HPLC system (Agilent Technologies, Wilmington, Del.) equipped with a binary pump, well-plated thermostated autosampler, thermostated column compartment, and a diode array UV detector. A Zorbax 300SB-C8 column (Agilent Technologies, Wilmington, Del.) having a 5 μm particle size and 2.1×150 mm inner diameter was used for the separations. The column was maintained at 50° C. The mobile phase consisted of two eluents. Eluent A was 0.1% TFA (trifluoroacetic acid) in water and eluent B was 0.1% TFA in acetonitrile (Spectrum Chemical, New Brunswick, N.J.). A linear gradient from 80/20 to 50/50 (A/B) was applied over 30 minutes. The flow rate was 0.4 mL/minute and the UV detection wavelength was set at 214 nm. The total run time was 34 minutes and the sample injection volume was 15 μL.
A sample formulation containing 10 mg/mL of [Glu^22,25,Leu^23,28,31,Aib^29,Lys^26,30]hPTHrP(1-34)NH2 and 10 mg/mL of L-histidine monohydrochloride (His-HCl) in PBS was prepared. A control formulation was also prepared containing 10 mg/mL of [Glu^22,25,Leu^23,28,31,Aib^29,Lys^26,30]hPTHrP(1-34)NH2 in PBS. […] Microneedle arrays were coated with either the sample or the control formulation. The coating was applied by dropwise addition of 40 μL of the formulation to the portion of the array defined by the octagon shaped pattern of microneedles. The coated arrays (both sample and control formulation coated) were dried in an oven at 35° C. for 1.5 hours followed by 30° C. for 15 hours.
After drying, the coated arrays were placed in a storage chamber that was maintained at either 25° C./60% RH or 5° C./ambient RH. The [Glu^22,25,Leu^23,28,31,Aib^29,Lys^26,30]hPTHrP(1-34)NH2 content of the coated arrays was determined following storage in the chamber for 7 days, 14 days, 28 days, and 2 months. The initial [Glu^22,25,Leu^23,28,31,Aib^29,Lys^26,30]hPTHrP(1-34)NH2 content was also determined using freshly coated arrays (both sample and control formulation coated). The arrays used to determine initial content were stored in a refrigerator at about 4° C. and analyzed within one day of being prepared. At the designated time point, an array was taken from the chamber and washed with PBS (3.5 mL) to remove the coating from the array. An aliquot of the resulting wash solution was analyzed for [Glu^22,25,Leu^23,28,31,Aib^29,Lys^26,30]hPTHrP(1-34)NH2 content using the HPLC method described above. The results were quantified against an external standard of [Glu^22,25,Leu^23,28,31,Aib^29,Lys^26,30]hPTHrP(1-34)NH2. At each time point, the percent purity of [Glu^22,25,Leu^23,28,31,Aib^29,Lys^26,30]hPTHrP(1-34)NH2 in the coating was determined by measuring the peak area for [Glu^22,25,Leu^23,28,31,Aib^29,Lys^26,30]hPTHrP(1-34)NH2 in the selected coating and dividing it by the total peak area measured for all [Glu^22,25,Leu^23,28,31,Aib^29,Lys^26,30]hPTHrP(1-34)NH2 related peaks.
The same procedure as described in Example 10 was used with the exception that the sample formulation contained 10 mg/mL of L-arginine hydrochloride, instead of L-histidine monohydrochloride.

Percent Purity of [Glu^22,25, Leu^23,28,31, Aib^29, Lys^26,30]hPTHrP(1-34)NH2 (Amino Acid L-Arginine (Arg-HCl 10 mg/mL), peptide in PBS, Storage Condition 5° C./ambient RH, 0 day): 99.0% | Percent Purity of [Glu^22,25, Leu^23,28,31, Aib^29, Lys^26,30]hPTHrP(1-34)NH2 (Amino Acid L-Arginine (Arg-HCl 10 mg/mL), peptide in PBS, Storage Condition 5° C./ambient RH, 2 months): 98.4% | Percent Purity of [Glu^22,25, Leu^23,28,31, Aib^29, Lys^26,30]hPTHrP(1-34)NH2 (Amino Acid L-Arginine (Arg-HCl 10 mg/mL), peptide in PBS, Storage Condition 5° C./ambient RH, 7 day): 98.8% | Percent Purity of [Glu^22,25, Leu^23,28,31, Aib^29, Lys^26,30]hPTHrP(1-34)NH2 (Amino Acid L-Arginine (Arg-HCl 10 mg/mL), peptide in PBS, Storage Condition 5° C./ambient RH, 14 day): 98.8% | Percent Purity of [Glu^22,25, Leu^23,28,31, Aib^29, Lys^26,30]hPTHrP(1-34)NH2 (Amino Acid L-Arginine (Arg-HCl 10 mg/mL), peptide in PBS, Storage Condition 5° C./ambient RH, 28 day): 98.8% | Percent Purity of [Glu^22,25, Leu^23,28,31, Aib^29, Lys^26,30]hPTHrP(1-34)NH2 (Amino Acid L-Arginine (Arg-HCl 10 mg/mL), peptide in PBS, Storage Condition 25° C./60% RH, 0 day): 99.0% | Percent Purity of [Glu^22,25, Leu^23,28,31, Aib^29, Lys^26,30]hPTHrP(1-34)NH2 (Amino Acid L-Arginine (Arg-HCl 10 mg/mL), peptide in PBS, Storage Condition 25° C./60% RH, 2 months): 97.8% | Percent Purity of [Glu^22,25, Leu^23,28,31, Aib^29, Lys^26,30]hPTHrP(1-34)NH2 (Amino Acid L-Arginine (Arg-HCl 10 mg/mL), peptide in PBS, Storage Condition 25° C./60% RH, 7 day): 98.8% | Percent Purity of [Glu^22,25, Leu^23,28,31, Aib^29, Lys^26,30]hPTHrP(1-34)NH2 (Amino Acid L-Arginine (Arg-HCl 10 mg/mL), peptide in PBS, Storage Condition 25° C./60% RH, 14 day): 98.6% | Percent Purity of [Glu^22,25, Leu^23,28,31, Aib^29, Lys^26,30]hPTHrP(1-34)NH2 (Amino Acid L-Arginine (Arg-HCl 10 mg/mL), peptide in PBS, Storage Condition 25° C./60% RH, 28 day): 98.7% | Percent Purity of [Glu^22,25, Leu^23,28,31, Aib^29, Lys^26,30]hPTHrP(1-34)NH2 (Amino Acid L-Histidine (His-HCl 10 mg/mL), peptide 10 mg/mL in PBS, Storage Condition 5° C./ambient RH, 2 months): 98.7% | Percent Purity of [Glu^22,25, Leu^23,28,31, Aib^29, Lys^26,30]hPTHrP(1-34)NH2 (Amino Acid L-Histidine (His-HCl 10 mg/mL), peptide 10 mg/mL in PBS, Storage Condition 5° C./ambient RH, Day 7): 98.9% | Percent Purity of [Glu^22,25, Leu^23,28,31, Aib^29, Lys^26,30]hPTHrP(1-34)NH2 (Amino Acid L-Histidine (His-HCl 10 mg/mL), peptide 10 mg/mL in PBS, Storage Condition 5° C./ambient RH, Day 14): 98.9% | Percent Purity of [Glu^22,25, Leu^23,28,31, Aib^29, Lys^26,30]hPTHrP(1-34)NH2 (Amino Acid L-Histidine (His-HCl 10 mg/mL), peptide 10 mg/mL in PBS, Storage Condition 5° C./ambient RH, Day 28): 98.9% | Percent Purity of [Glu^22,25, Leu^23,28,31, Aib^29, Lys^26,30]hPTHrP(1-34)NH2 (Amino Acid L-Histidine (His-HCl 10 mg/mL), peptide 10 mg/mL in PBS, Storage Condition 5° C./ambient RH, Initial): 99.0% | Percent Purity of [Glu^22,25, Leu^23,28,31, Aib^29, Lys^26,30]hPTHrP(1-34)NH2 (Amino Acid L-Histidine (His-HCl 10 mg/mL), peptide 10 mg/mL in PBS, Storage Condition 25° C./60% RH, 2 months): 98.6% | Percent Purity of [Glu^22,25, Leu^23,28,31, Aib^29, Lys^26,30]hPTHrP(1-34)NH2 (Amino Acid L-Histidine (His-HCl 10 mg/mL), peptide 10 mg/mL in PBS, Storage Condition 25° C./60% RH, Day 7): 98.9% | Percent Purity of [Glu^22,25, Leu^23,28,31, Aib^29, Lys^26,30]hPTHrP(1-34)NH2 (Amino Acid L-Histidine (His-HCl 10 mg/mL), peptide 10 mg/mL in PBS, Storage Condition 25° C./60% RH, Day 14): 98.8% | Percent Purity of [Glu^22,25, Leu^23,28,31, Aib^29, Lys^26,30]hPTHrP(1-34)NH2 (Amino Acid L-Histidine (His-HCl 10 mg/mL), peptide 10 mg/mL in PBS, Storage Condition 25° C./60% RH, Day 28): 98.9% | Percent Purity of [Glu^22,25, Leu^23,28,31, Aib^29, Lys^26,30]hPTHrP(1-34)NH2 (Amino Acid L-Histidine (His-HCl 10 mg/mL), peptide 10 mg/mL in PBS, Storage Condition 25° C./60% RH, Initial): 99.0% | Percent Purity of [Glu^22,25, Leu^23,28,31, Aib^29, Lys^26,30]hPTHrP(1-34)NH2 (Amino Acid None (control), peptide 10 mg/mL in PBS, Storage Condition 5° C./ambient RH, 2 months): 97.3% | Percent Purity of [Glu^22,25, Leu^23,28,31, Aib^29, Lys^26,30]hPTHrP(1-34)NH2 (Amino Acid None (control), peptide 10 mg/mL in PBS, Storage Condition 5° C./ambient RH, Day 7): 98.2% | Percent Purity of [Glu^22,25, Leu^23,28,31, Aib^29, Lys^26,30]hPTHrP(1-34)NH2 (Amino Acid None (control), peptide 10 mg/mL in PBS, Storage Condition 5° C./ambient RH, Day 14): 98.4% | Percent Purity of [Glu^22,25, Leu^23,28,31, Aib^29, Lys^26,30]hPTHrP(1-34)NH2 (Amino Acid None (control), peptide 10 mg/mL in PBS, Storage Condition 5° C./ambient RH, Day 28): 97.6% | Percent Purity of [Glu^22,25, Leu^23,28,31, Aib^29, Lys^26,30]hPTHrP(1-34)NH2 (Amino Acid None (control), peptide 10 mg/mL in PBS, Storage Condition 5° C./ambient RH, Initial): 98.7% | Percent Purity of [Glu^22,25, Leu^23,28,31, Aib^29, Lys^26,30]hPTHrP(1-34)NH2 (Amino Acid None (control), peptide 10 mg/mL in PBS, Storage Condition 25° C./60% RH, 2 months): 96.3% | Percent Purity of [Glu^22,25, Leu^23,28,31, Aib^29, Lys^26,30]hPTHrP(1-34)NH2 (Amino Acid None (control), peptide 10 mg/mL in PBS, Storage Condition 25° C./60% RH, Day 7): 98.0% | Percent Purity of [Glu^22,25, Leu^23,28,31, Aib^29, Lys^26,30]hPTHrP(1-34)NH2 (Amino Acid None (control), peptide 10 mg/mL in PBS, Storage Condition 25° C./60% RH, Day 14): 97.7% | Percent Purity of [Glu^22,25, Leu^23,28,31, Aib^29, Lys^26,30]hPTHrP(1-34)NH2 (Amino Acid None (control), peptide 10 mg/mL in PBS, Storage Condition 25° C./60% RH, Day 28): 97.5% | Percent Purity of [Glu^22,25, Leu^23,28,31, Aib^29, Lys^26,30]hPTHrP(1-34)NH2 (Amino Acid None (control), peptide 10 mg/mL in PBS, Storage Condition 25° C./60% RH, Initial): 98.7%
Substance: [Glu^22,25,Leu^23,28,31,Aib^29,Lys^26,30]hPTHrP(1-34)NH2
